According to ChEMBL document CHEMBL1201862, “PubChem BioAssay data set” (2004):
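Compound exposure: 48 hours, 5 concentrations, 96-well plates. GI50 is the concentration that inhibits growth by half.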 The source made the active and inactive calls. Cut-off read from the data, not from the text of the source: active = GI50 up to about 1.1 µM and inactive = higher.

What was measured:
Test in all cases: NCI tumour cell line growth inhibition, 48 h
[1] = system: Hs-578T
[2] = system: MOLT-4
[3] = system: Malme-3M
[4] = system: SW-620
[5] = system: A498
[6] = system: CCRF-CEM
[7] = system: COLO 205
[8] = system: NCI-H226
[9] = system: SN12C
[10] = system: HT-29
[11] = system: OVCAR-8
[12] = system: SF-295
[13] = system: HCC 2998
[14] = system: M14
[15] = system: SK-MEL-2
[16] = system: UACC-62
[17] = system: K562
[18] = system: SK-OV-3
[19] = system: PC-3
[20] = system: NCI-H460

| SMILES | GI50 [1] | GI50 [2] | GI50 [3] | GI50 [4] | GI50 [5] | GI50 [6] | GI50 [7] | GI50 [8] | GI50 [9] | GI50 [10] | GI50 [11] | GI50 [12] | GI50 [13] | GI50 [14] | GI50 [15] | GI50 [16] | GI50 [17] | GI50 [18] | GI50 [19] | GI50 [20] |
| --- | --- | --- | --- | --- | --- | --- | --- | --- | --- | --- | --- | --- | --- | --- | --- | --- | --- | --- | --- | --- |
| CN(C)CCn1c(=O)nc2c3c(c([N+](=O)[O-])ccc31)Nc1ccc(O)cc1-2 | 3.95 µM (inactive) | 0.0638 µM (active) | 3.67 µM (inactive) | 1.73 µM (inactive) | 6.32 µM (inactive) | 0.948 µM (active) | 2.72 µM (inactive) | 3.37 µM (inactive) | 2.61 µM (inactive) | 0.959 µM (active) | 1.82 µM (inactive) | 7.21 µM (inactive) | 2.48 µM (inactive) | 13.4 µM (inactive) | 15.7 µM (inactive) | 4.5 µM (inactive) | 2.41 µM (inactive) | 15.3 µM (inactive) | 4.25 µM (inactive) | 0.977 µM (active) |
| O=C(O)CCC(=O)C(=O)O [ALPHA-KETOGLUTARIC ACID] | > 100 µM (inactive) | > 100 µM (inactive) | > 100 µM (inactive) | > 100 µM (inactive) | > 100 µM (inactive) | > 100 µM (inactive) | > 100 µM (inactive) | > 100 µM (inactive) | > 100 µM (inactive) | > 100 µM (inactive) | > 100 µM (inactive) | > 100 µM (inactive) | > 100 µM (inactive) | > 100 µM (inactive) | > 100 µM (inactive) | > 100 µM (inactive) | > 100 µM (inactive) | > 100 µM (inactive) | > 100 µM (inactive) | > 100 µM (inactive) |
| CC[C@]12CCCN3CCc4c(n(c5ccccc45)C(=O)C1)[C@@H]32 [VINBURNINE] | 9.33 µM (inactive) | 12.2 µM (inactive) | 4.63 µM (inactive) | 3.94 µM (inactive) | 14.4 µM (inactive) | 1.31 µM (inactive) | 4.43 µM (inactive) | > 83.8 µM (inactive) | 12.9 µM (inactive) | 3.56 µM (inactive) | 15.5 µM (inactive) | 3.58 µM (inactive) | 3.92 µM (inactive) | 3.97 µM (inactive) | 4.92 µM (inactive) | 5.82 µM (inactive) | 2.9 µM (inactive) | 10.8 µM (inactive) | 18.2 µM (inactive) | 3.72 µM (inactive) |
